The subject of experiment [1] is sDMA marks (SmD3me2s) in Granta-519 cells. The experiment in a line: Western blotting for symmetric di-methyl arginine (sDMA) marks in Granta-519 cells. To be noted: Homo sapiens, 72 h; Granta-519 cell line (values in square brackets), 3 days treatment. It counts as cell-based. The protocol: Cell Treatment and Western Blotting for Detecting Symmetric Di-Methyl Arginine (sDMA) Marks
Compound titration and cell culture: Compounds were dissolved in DMSO to make 10 mM stock and 3-fold series dilutions were further conducted to make working stocks top at 1 mM. Granta-519 cells were maintained in PRMI 1640 (Corning Cellgro, Catalog #: 10-040-CV) supplemented with 10% v/v FBS (GE Healthcare, Catalog #: SH30910.03) and U-87 MG cells were maintained in DMEM (Corning Cellgro, Catalog #: 10-013-CV) with 10% FBS and 2 mM Glutamin (Corning Cellgro, Catalog #25005CV).
To determine enzyme inhibition IC50 values in Granta-519 and U-87 MG cells using Western Blot analysis. One day before experiment, Granta-519 cells were passaged to a density of 0.5×10^6 cells/ml. U-87 MG cells were trypsinized and 4×10^5 cells were seeded into 6-well plates and allow to grow overnight. […]
Cells were harvested 3 days later, resuspended in 15 uL PBS, lysed in 4% SDS, and homogenized by passing through homogenizer column (Omega Biotek, Catalog #: HCR003). Total protein concentrations were determined by BCA assay (ThermoFisher Scientific, Catalog #: 23225). […] SmD3me2s bands were quantified by ImageJ. […] IC50 values were calculated using Graphpad Prism ([Inhibitor] vs. normalized response—Variable slope).
A general note: A western blot detects proteins with antibodies after separation by electrophoresis.

Experiment [2] relates to γ-globin expression in K562 cells. The experiment can be described thus: γ-globin induction by quantitative PCR in K562 cells. The settings on record: 0.1 μM, 6 days, N=1. The format is cell-based. The procedure: Compounds were dissolved in DMSO to make 10 mM stock solutions, and further diluted to make 1 mM and 0.1 mM stocks.
K562 cells were purchased from ATCC and maintained in Iscove's DMEM (Corning Cellgro, Catalog #15-016-CVR) supplemented with 10% v/v FBS (GE Healthcare, Catalog #: SH30910.03) in a CO2 incubator (5% CO2) at 37° C. Cells were plated at a density of 5×10^5 cells/ml and treated with compound at final concentrations of 0.1 and 1 μM. Media and compound were renewed after 3 days in culture and cells were collected for RNA isolation after 6 days of treatment.
Assessment of γ-Globin Induction by Quantitative PCR
RNA was isolated using Quick-RNA Microprep kit (Zymo Research, Catalog #Z1050), cDNA was synthesized using qScript cDNA SuperMix (Quantabio, Catalog #95048). Quantitative PCR for γ-globin was performed using PerfeCTa SYBR Green FastMix (Quantabio, Catalog #95071) on Bio-Rad CFX Connect Real-Time PCR Detection System. Gene expression analysis was performed using CFX Manager software.
Assessment of γ-Globin Induction by Quantitative PCR in K562 Cells
Compounds were dissolved in DMSO to make 10 mM stock solutions, and further diluted to make 1 mM and 0.1 mM stocks. K562 cells were purchased from ATCC and maintained in Iscove's DMEM (Corning Cellgro, Catalog #15-016-CVR) supplemented with 10% v/v FBS (GE Healthcare, Catalog #: SH30910.03) in a CO2 incubator (5% CO2) at 37° C. […]

The target of experiment [3] is PRMT5/MEP50 complex (Homo sapiens (Human), UniProt O14744). The experiment can be described thus: PRMT5 biochemical assay (SPA, 3H-SAM). To be noted: PRMT5/MEP50 2.5 nM, 300 nM AcH4-23 substrate, 1 μM 3H-SAM. The procedure:
Biochemical Assay Protocol
Compounds were solubilized and 3-fold diluted in 100% DMSO. […] Standard reactions were performed in a total volume of 30 μl in assay buffer, with 300 nM histone H4 based AcH4-23 (Anaspec: AS-65002) as substrate. To this was added the PRMT5/MEP50 complex diluted to provide a final assay concentration of 2.5 nM and the compounds were allowed to preincubate for 20 minutes at 37° C. The reaction was initiated by adding S-[3H-methyl]-adenosyl-L-methionine (PerkinElmer: NET155001MC) to final concentration of 1 μM. Following a 30 minutes incubation at 37° C., the reaction was stopped by adding 25 μL of 8M Guanidine HCl. Prepare streptavidin YSI SPA beads (Perkinelmer: RPNQ0012) at 0.3 mg/mL in assay buffer. To each reaction, add 150 μL of SPA beads suspension, and incubated while shaking at room temperature for 30 minutes. The plate was centrifuged at 100×g for 30 second before reading in a scintillation counter. IC50 values were determined by fitting the data to the standard 4 parameters with Hill Slope using GraphPad Prism software.

Molecules are shown by their SMILES. pIC50: −log10 of the molar value.

The pIC50 is −log10 of the IC50, conventionally taken in molar units. The low end stands for a large IC50, the high end for a small IC50.

Chain of PRMT5/MEP50 complex (O14744 whole entry): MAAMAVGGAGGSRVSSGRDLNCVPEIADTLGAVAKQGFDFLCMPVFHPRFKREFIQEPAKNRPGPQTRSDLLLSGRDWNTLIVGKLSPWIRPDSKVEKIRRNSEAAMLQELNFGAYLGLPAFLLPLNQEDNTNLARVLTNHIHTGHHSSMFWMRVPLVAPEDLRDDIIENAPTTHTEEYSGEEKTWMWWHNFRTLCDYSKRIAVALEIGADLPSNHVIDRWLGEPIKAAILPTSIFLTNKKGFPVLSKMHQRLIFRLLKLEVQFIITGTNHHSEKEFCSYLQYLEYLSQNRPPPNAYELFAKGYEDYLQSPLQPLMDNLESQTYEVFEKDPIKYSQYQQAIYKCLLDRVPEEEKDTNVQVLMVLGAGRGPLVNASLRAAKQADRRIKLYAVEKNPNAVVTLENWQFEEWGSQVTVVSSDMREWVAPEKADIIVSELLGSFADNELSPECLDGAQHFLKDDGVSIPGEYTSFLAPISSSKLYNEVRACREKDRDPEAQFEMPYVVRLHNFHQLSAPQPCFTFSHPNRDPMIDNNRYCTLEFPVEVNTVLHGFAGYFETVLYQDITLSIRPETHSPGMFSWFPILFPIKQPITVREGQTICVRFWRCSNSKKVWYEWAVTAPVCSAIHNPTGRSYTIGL
Chain of PRMT5/MEP50 complex (Q9BQA1 whole entry partner): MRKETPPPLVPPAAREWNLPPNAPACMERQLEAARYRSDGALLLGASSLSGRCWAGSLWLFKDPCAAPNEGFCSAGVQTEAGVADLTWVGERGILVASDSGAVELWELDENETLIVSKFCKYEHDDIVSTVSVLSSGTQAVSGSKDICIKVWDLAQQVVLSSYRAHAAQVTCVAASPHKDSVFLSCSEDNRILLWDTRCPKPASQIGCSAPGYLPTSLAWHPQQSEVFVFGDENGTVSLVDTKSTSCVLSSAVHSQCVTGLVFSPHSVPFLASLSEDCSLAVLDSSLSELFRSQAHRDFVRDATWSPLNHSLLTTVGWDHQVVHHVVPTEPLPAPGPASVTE

Molecule `Nc1ncnc2c1ccn2[C@@H]1C[C@H]([C@H]2OCc3cc(Cl)ccc32)[C@@H](O)[C@H]1O` [Example 2A, (1R,2S,3R,5S)-3-(4-amino-7H-pyrrolo[2,3-d]pyrimidin-7-yl)-5-((R)-5-chloro-1,3-dihydroisobenzofuran-1-yl)cyclopentane-1,2-diol] gave a pIC50 in experiment [1] of 7.57.
With `Nc1ncnc2c1ccn2[C@@H]1O[C@H]([C@@H]2OCc3ccc(Cl)cc32)[C@@H](O)[C@H]1O` [Example 5, (2R,3R,4S,5S)-2-(4-amino-7H-pyrrolo[2,3-d]pyrimidin-7-yl)-5-((R)-6-chloro-1,3-dihydroisobenzofuran-1-yl)tetrahydrofuran-3,4-diol], in experiment [2], the “increase in expression of γ-globin” value is recorded as 3 fold.
As for `Nc1ncnc2c1ccn2[C@@H]1O[C@H]([C@@H]2OCOCc3cc(Cl)ccc32)[C@@H](O)[C@H]1O` [Example 81, (2R,3R,4S,5S)-2-(4-amino-7H-pyrrolo[2,3-d]pyrimidin-7-yl)-5-((R)-7-chloro-1,5-dihydrobenzo[e][1,3]dioxepin-1-yl)tetrahydrofuran-3,4-diol], the pIC50 in experiment [3] was 7.38.
Molecule `Cc1ncnc2c1ccn2[C@@H]1O[C@H]([C@@H]2OCCCc3cc(Cl)ccc32)[C@@H](O)[C@H]1O` [Example 101, (2S,3S,4R,5R)-2-((R)-7-chloro-1,3,4,5-tetrahydrobenzo[c]oxepin-1-yl)-5-(4-methyl-7H-pyrrolo[2,3-d]pyrimidin-7-yl)tetrahydrofuran-3,4-diol] gave a pIC50 in experiment [3] of 5.80.

For the origin of these results see patent US11214574B2, “Selective inhibitors of protein arginine methyltransferase 5 (PRMT5)” (Prelude Therapeutics, Incorporated, priority 2018, dated 2022).
